Patent publication US5053408A, “Hexitol derivatives having vasodilative activity” (Kyowa Hakko Kogyo Co., Ltd., priority 1989, dated 1991)
Structures can show the parent of a compound that is named as a salt. Where two headings read alike, the source gives them in different places.

Legend:
male dd-mice = test: Acute toxicity; conditions: mouse, in vivo, 10080 min; for MLD i.p.: ip; for MLD p.o.: po
Experimental: The compounds were orally administered and intraperitoneally administered to male dd-mice weighing 20 to 25 g. […] was determined by observing the mortality for seven days after the administration.

[1] = system: coronary vasospasm model (lysine-vasopressin); test: Effects on coronary vasospasm model (lysine-vasopressin test), inhibition of ST-segment elevation; assay type: in vivo, male Wistar rats; conditions: Rattus norvegicus
[2] = po, 30 min before anesthetization, lysine-vasopressin 0.3 I.U./kg iv, MED = minimum dose with depression rate of 20% or higher, read-out: Coronary vasoconstriction model MED p.o.
[3] = ip, 20 min before anesthetization, lysine-vasopressin 0.3 I.U./kg iv, MED = minimum dose with depression rate of 20% or higher, read-out: Coronary vasoconstriction model MED i.p.

SMILES | MLD i.p. (male dd-mice) | MLD p.o. (male dd-mice) | minimal effective dose [1, 2] | minimal effective dose [1, 3] | minimal effective dose ([1]; ip, read-out: Coronary vasoconstriction model MED i.p.) | minimal effective dose ([1]; po, read-out: Coronary vasoconstriction model MED p.o.)
O=C(c1ccccn1)N1CCN([C@H]2CO[C@H]3[C@@H]2OC[C@@H]3O[N+](=O)[O-])CC1 [Compound 81, 5-Deoxy-5-[4-(pyridin-2-yl)carbonylpiperazin-1-yl]-1.4;3.6-dianhydro-L-iditol 2-nitrate hydrochloride] | > 100 mg/kg | > 300 mg/kg | < 30 mg/kg | – | – | –
O=C(c1cccnc1)N1CCN([C@H]2CO[C@H]3[C@@H]2OC[C@@H]3O[N+](=O)[O-])CC1 [Compound 80] | > 100 mg/kg | > 300 mg/kg | < 30 mg/kg | < 25 mg/kg | – | –
O=[N+]([O-])O[C@H]1CO[C@H]2[C@@H]1OC[C@@H]2N1CCN(c2nc3ccccc3[nH]2)CC1 [Compound 76, 5-[4-(Benzimidazol-2-yl)piperazin-1-yl]-5-deoxy-1.4;3.6-dianhydro-L-iditol 2-nitrate hydrochloride] | > 100 mg/kg | > 300 mg/kg | < 30 mg/kg | – | – | –
O=[N+]([O-])O[C@H]1CO[C@H]2[C@@H]1OC[C@@H]2N1CCN(c2nnnn2-c2ccccc2)CC1 [Compound 60, 5-Deoxy-5-[4-(1-phenyl-1H-tetrazol-5-yl)piperazin-1-yl-]-1.4;3.6-dianhydro-L-iditol 2-nitrate hydrochloride] | > 100 mg/kg | > 300 mg/kg | – | < 25 mg/kg | – | –
O=[N+]([O-])O[C@H]1CO[C@H]2[C@@H]1OC[C@@H]2N1CCN(c2nc3ccccc3s2)CC1 [Compound 58, 5-[4-(Benzothiazol-2-yl)piperazin-1-yl]-5-deoxy-1.4;3.6-dianhydro-L-iditol 2-nitrate hydrochloride] | > 100 mg/kg | > 300 mg/kg | – | < 25 mg/kg | – | –
Cc1cc2ncn(CCCN3CCN([C@H]4CO[C@H]5[C@@H]4OC[C@@H]5O[N+](=O)[O-])CC3)c2cc1C [Compound 23, 5-Deoxy-5-[4-[3-(5,6-dimethylbenzimidazol-1-yl)propyl]-piperazin-1-yl]-1.4;3.6-dianhydro-L-iditol 2-nitrate hydrochloride] | > 100 mg/kg | > 300 mg/kg | < 30 mg/kg | – | – | –
O=C(c1ccco1)N1CCN([C@H]2CO[C@H]3[C@@H]2OC[C@@H]3O[N+](=O)[O-])CC1 [Compound 83, 5-Deoxy-5-[4-(furan-2-yl)carbonylpiperazin-1-yl]-1.4;3.6-dianhydro-L-iditol2-nitrate hydrochloride] | > 100 mg/kg | > 300 mg/kg | < 30 mg/kg | – | – | –
O=[N+]([O-])O[C@H]1CO[C@H]2[C@@H]1OC[C@@H]2N1CCN(CCCSc2ccncc2)CC1 [Compound 12, 5-Deoxy-5-[4-[3-(pyridin-4-ylthio)propyl]piperazin-1-yl]-1.4;3.6-dianhydro-L-iditol 2-nitrate hydrochloride] | > 100 mg/kg | > 300 mg/kg | < 30 mg/kg | – | – | –
O=C(c1ccc(O)nc1)N1CCN([C@H]2CO[C@H]3[C@@H]2OC[C@@H]3O[N+](=O)[O-])CC1 [Compound 114, 5-Deoxy-5-[4-(6-hydroxypyridin-3-yl)carbonylpiperazin-1-yl]-1.4;3.6-dianhydro-L-iditol 2-nitrate hydrochloride] | > 100 mg/kg | > 300 mg/kg | < 30 mg/kg | – | – | –
O[C@H]1CO[C@H]2[C@@H]1OC[C@@H]2N1CCN(CCCOc2ccccc2)CC1 [Compound 102, 5-Deoxy-5-[4-(3-phenoxypropyl)piperazin-1-yl]-1.4;3.6-dianhydro-L-iditol hydrochloride] | > 100 mg/kg | > 300 mg/kg | < 30 mg/kg | < 25 mg/kg | – | –
O=[N+]([O-])O[C@H]1CO[C@H]2[C@@H]1OC[C@@H]2N1CCN(CCCn2cc3ccccc3n2)CC1 [Compound 31, 5-Deoxy-5-[4-[3-(indazol-2-yl)propyl]piperazin-1-yl]-1.4; 3.6-dianhydro-L-iditol 2-nitrate hydrochloride] | > 100 mg/kg | > 300 mg/kg | – | < 25 mg/kg | – | –
Cc1ccc(C(=O)N2CCN([C@H]3CO[C@H]4[C@@H]3OC[C@@H]4O[N+](=O)[O-])CC2)cn1 [Compound 93, 5-Deoxy-5-[4-(6-methylpyridin-3-yl)carbonylpiperazin-1-yl]-1.4;3.6-dianhydro-L-iditol 2-nitrate hydrochloride] | > 100 mg/kg | > 300 mg/kg | < 30 mg/kg | – | – | –
COc1cc2nc(N3CCN([C@H]4CO[C@H]5[C@@H]4OC[C@@H]5O[N+](=O)[O-])CC3)nc(N)c2cc1OC [Compound 78, 5-[4-(4-Amino-6,7-dimethoxyquinazolin-2-yl)piperazin-1-yl]-5-deoxy-1.4;3.6-dianhydro-L-iditol 2-nitrate hydrochloride] | > 100 mg/kg | > 300 mg/kg | < 30 mg/kg | – | – | –
O=C(c1ccccc1)N1CCN([C@H]2CO[C@H]3[C@@H]2OC[C@@H]3O[N+](=O)[O-])CC1 [Compound 84, 5-(4-Benzoylpiperazin-1-yl)-5-deoxy-1.4;3.6-dianhydro-L-iditol 2-nitrate hydrochloride] | > 100 mg/kg | > 300 mg/kg | – | < 25 mg/kg | – | –
COc1ccc(C(=O)N2CCN([C@H]3CO[C@H]4[C@@H]3OC[C@@H]4O[N+](=O)[O-])CC2)c(OC)c1OC [Compound 87, 5-Deoxy-5-[4-(2,3,4-trimethoxybenzoyl)piperazin-1-yl]-1.4;3.6-dianhydro-L-iditol 2-nitratehydrochloride] | > 100 mg/kg | > 300 mg/kg | < 30 mg/kg | – | – | –
O=[N+]([O-])O[C@@H]1CO[C@H]2[C@@H]1OC[C@@H]2N1CCN(CCCSc2ccccc2)CC1 [Compound 96, 2-Deoxy-2-[4-(3-phenylthiopropyl)piperazin-1-yl]-1.4;3.6-dianhydro-D-glucitol 5-nitrate hydrochloride] | > 100 mg/kg | > 300 mg/kg | – | < 25 mg/kg | – | –
O=[N+]([O-])O[C@H]1CO[C@H]2[C@@H]1OC[C@@H]2N1CCN(CCc2nc3ccccc3[nH]2)CC1 [Compound 57, 5-[4-[2-(Benzimidazol-2-yl)ethyl]piperazin-1-yl]-5-deoxy-1.4;3.6-dianhydro-L-iditol 2-nitrate hydrochloride] | > 100 mg/kg | > 300 mg/kg | – | < 25 mg/kg | – | –
O=C(c1ccoc1)N1CCN([C@H]2CO[C@H]3[C@@H]2OC[C@@H]3O[N+](=O)[O-])CC1 [Compound 112, 5-Deoxy-5-[4-(furan-3-yl)carbonylpiperazin-1-yl]-1.4;3.6-dianhydro-L-iditol2-nitrate hydrochloride] | > 100 mg/kg | > 300 mg/kg | < 30 mg/kg | – | – | –
O=C(c1cccnc1)N1CCN([C@H]2CO[C@H]3[C@@H]2OC[C@@H]3O)CC1 [Compound 117, 5-Deoxy-5-[4-(pyridin-3-yl)carbonylpiperazin-1-yl]-1.4;3.6-dianhydro-L-iditol] | – | – | – | – | < 25 mg/kg | < 30 mg/kg
O=C(NCCO[N+](=O)[O-])c1cccnc1 [Nicorandil, reference compound] | – | – | – | < 30 mg/kg | – | –
